From publication PMC12974487, “Inhibition of FicD-mediated AMPylation and deAMPylation by isoprenoid diphosphates” (Proceedings of the National Academy of Sciences of the …, 2026)
Positions count from the first letter of the chain named.

Legend:
FicD^E234G = molecular target: T1, FicD^E234G (Homo sapiens, UniProt Q9BVA6, E234G); experiment: Total (intact) mass analysis of FicD^E234G incubated with FPP; settings: 50uM FPP, 5mM MgCl2
T1 construct: soluble ER luminal domain (residues 105 to 458) of wild-type human FicD and three mutants; 6xHis-Sumo (N, cleaved yes); made in house; host or cells: Rosetta(DE3) E. coli
T1 sequence (Q9BVA6 105-458 E234G): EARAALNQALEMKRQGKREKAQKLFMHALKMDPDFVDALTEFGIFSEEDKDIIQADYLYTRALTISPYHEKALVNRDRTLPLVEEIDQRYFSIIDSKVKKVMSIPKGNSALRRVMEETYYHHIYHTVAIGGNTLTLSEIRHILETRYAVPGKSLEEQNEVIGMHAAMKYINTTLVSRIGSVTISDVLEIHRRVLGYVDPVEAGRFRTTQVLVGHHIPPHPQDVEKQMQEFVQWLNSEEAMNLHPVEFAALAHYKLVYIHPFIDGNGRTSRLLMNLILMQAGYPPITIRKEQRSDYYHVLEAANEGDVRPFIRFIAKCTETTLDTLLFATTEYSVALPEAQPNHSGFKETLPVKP
Excerpt: To reveal the mechanism of FicD inhibition by FPP, we leveraged the FicD^E234G mutant for structural studies. We soaked FPP into crystals of the FicD^E234G variant and solved the ligand-bound structure (Fig. 5 A and B). […] The diphosphate group of FPP closely overlapped with the ADP diphosphate when superimposed with a FicD^E234G-ADP structure (Fig. 5 A, Left), and the hydrophobic isoprenyl groups of FPP overlap with the nucleoside in the active site binding pocket (Fig. 5 A, Right). The FPP diphosphate binds directly to the side chains of N369, R371, with the sidechain of D367 coordinating the Mg^2+ (Fig. 5B). These interactions mimic those observed between ADP/ATP and FicD ([26]). […] As previously noted, only GPP and FPP could bind to and inhibit FicD, but analogs of the isoprenoid-pyrophosphate metabolites (geraniol, GMP, farnesol, FMP, DMAPP, and MVAPP) could not (Fig. 2 B–D). Together, these observations indicate both the pyrophosphate head and the long isoprenoid tail of GPP/FPP contribute to the binding with FicD. […]
Intact mass analysis of proteins was performed by the UT Southwestern Proteomics Core. Intact protein samples were analyzed by LC/MS, using a Sciex X500B QTOF mass spectrometer operating in positive ion mode, coupled to an Agilent 1290 Infinity II HPLC. […]

FicD^WT = molecular target: T2, FicD^WT (Homo sapiens, UniProt Q9BVA6); design: method as in PMID 25435325; settings: cited from earlier work
T2 construct: soluble ER luminal domain (residues 105 to 458) of wild-type human FicD; 6xHis-Sumo (N, cleaved yes); made in house; host or cells: Rosetta(DE3) E. coli
T2 sequence (Q9BVA6 105-458): T1 sequence (Q9BVA6 105-458 E234G) with G130E

Row | Compound | mass shift associated with putative FPP automodification (FicD^E234G) | Kd (FicD^WT) [nM]
1 | CC(C)=CCC/C(C)=C/CC/C(C)=C/COP(=O)(O)OP(=O)(O)O [FPP, farnesyl-pyrophosphate] | no mass shift | –
2 | Nc1ncnc2c1ncn2[C@@H]1O[C@H](COP(=O)(O)OP(=O)(O)O)[C@@H](O)[C@H]1O [ADP] | – | 1500
